The test concerns the target T1, Recombinant human HDAC6 (Homo sapiens, UniProt Q9UBN7).
T1 construct: full-length, MW=180 kDa; GST tag (N); made in house; host or cells: Sf9 insect cells (baculovirus)
T1 sequence (Q9UBN7 1-1215): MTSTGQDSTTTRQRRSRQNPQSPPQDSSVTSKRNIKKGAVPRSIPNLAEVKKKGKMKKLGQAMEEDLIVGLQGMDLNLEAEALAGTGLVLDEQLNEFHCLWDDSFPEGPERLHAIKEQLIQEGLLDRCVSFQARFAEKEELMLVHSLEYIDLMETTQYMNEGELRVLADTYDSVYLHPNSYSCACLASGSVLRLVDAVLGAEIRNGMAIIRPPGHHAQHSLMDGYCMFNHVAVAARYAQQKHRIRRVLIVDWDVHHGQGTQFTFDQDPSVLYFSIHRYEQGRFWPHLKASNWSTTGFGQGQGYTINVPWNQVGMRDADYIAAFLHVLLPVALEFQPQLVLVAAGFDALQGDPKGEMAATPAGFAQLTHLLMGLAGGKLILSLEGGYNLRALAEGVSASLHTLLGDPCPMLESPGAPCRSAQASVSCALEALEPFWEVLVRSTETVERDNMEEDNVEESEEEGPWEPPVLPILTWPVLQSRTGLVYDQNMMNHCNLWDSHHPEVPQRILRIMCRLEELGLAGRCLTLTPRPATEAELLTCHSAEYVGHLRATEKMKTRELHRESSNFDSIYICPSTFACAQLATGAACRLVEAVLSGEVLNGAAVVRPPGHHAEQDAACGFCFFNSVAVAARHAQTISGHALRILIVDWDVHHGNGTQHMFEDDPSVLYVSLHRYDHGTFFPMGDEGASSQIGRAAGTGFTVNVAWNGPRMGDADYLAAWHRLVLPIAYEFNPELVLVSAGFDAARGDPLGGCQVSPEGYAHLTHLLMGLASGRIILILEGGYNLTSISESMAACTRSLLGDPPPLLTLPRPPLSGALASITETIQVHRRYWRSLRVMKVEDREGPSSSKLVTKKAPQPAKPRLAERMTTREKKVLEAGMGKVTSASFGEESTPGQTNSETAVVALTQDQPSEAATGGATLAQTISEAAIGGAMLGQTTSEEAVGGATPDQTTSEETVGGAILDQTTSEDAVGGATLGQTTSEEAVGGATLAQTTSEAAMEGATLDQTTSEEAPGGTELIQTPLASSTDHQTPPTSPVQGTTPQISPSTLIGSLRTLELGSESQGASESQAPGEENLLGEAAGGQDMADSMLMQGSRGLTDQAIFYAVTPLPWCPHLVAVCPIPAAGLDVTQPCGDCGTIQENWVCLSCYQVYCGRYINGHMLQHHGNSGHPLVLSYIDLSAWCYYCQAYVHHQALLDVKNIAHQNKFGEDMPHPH
Put plainly: Biochemical HDAC enzymatic assay, HDAC6. The settings on record: incubation time 10 min. The protocol:
Incubation time for HDAC1/2 is 120 min, and 10 min for other HDACs.
Recombinant human HDAC6 (GenBank Accession No. BC069243), full-length, MW=180 kDa, was expressed by baculovirus in Sf9 insect cells using an N-terminal GST tag.
(§1) • I. Compound handling: Testing compounds were dissolved in 100% DMSO to a specific concentration. The serial dilution was conducted by epMotion 5070 in DMSO. • II. HDAC reaction buffer: 50 mM Tris-HCl, pH8.0, 137 mM NaCl, 2.7 mM KCl, and 1 mM MgCl2, Added fresh: 1 mg/ml BSA, 1% DMSO. • III. Substrate: Fluorogenic HDAC General Substrate for HDAC1, 2, 3, 6, 10, 11 ans Sirt1, 2 and 3: Arg-His-Lys-Lys(Ac); HDAC8 only substrate: Arg-His-Lys(Ac)-Lys(Ac); Class2A Substrate (HDAC4, 5, 7 and 9): Acetyl-Lys(trifluoroacetyl)-AMC; Sirt5 substrate: Ac-Lys(succinyl)-AMC. • IV. General Reaction Procedure: (Standard IC50 determination) • a. Delivered 2× enzyme in wells of reaction plate except No Enzyme (No En) control wells. Add buffer in No En wells. • b. Delivered compounds in 100% DMSO into the enzyme mixture by Acoustic technology (Echo550; nanoliter range). Spin down and pre-incubation. • c. Delivered 2× Substrate Mixture (Fluorogenic HDAC Substrate and co-factor (500 μM of Nicotinamide adenine dinucleotide (NAD^+) in all Sirt assay) in all reaction wells to initiate the reaction. Spin and shake. • d. Incubated for 1-2 hr. at 30° C. with seal. • e. Added Developer with Trichostatin A (or TMP269 or NAD^+) to stop the reaction and to generate fluorescent color. • f. Fluorescence was read (excitatory, 360; emission, 460) using the EnVision Multilabel Plate Reader (Perkin Elmer) • g. Endpoint reading was taken for analysis after the development reaches plateau. • V. Data Analysis: The percentages of enzyme activity (relative to DMSO controls) and IC50 values were calculated using the GraphPad Prism 4 program based on a sigmoidal dose-response equation.
The inhibitory activities of HDAC of compounds of the invention were determined using biochemical HDAC assays. Compounds were tested at the indicated doses in the biochemical assays of HDAC1, HDAC2, HDAC3, HDAC4, HDAC5, HDAC6, HDAC7, HDAC8, HDAC9, HDAC10, or HDAC11 enzyme. The curve fit and IC50 values were calculated using the GraphPad Prism 4 program based on a sigmoidal dose-response equation.
as §1, with “[…]” for “μM”, “equation. […]” for “equation.”

Results on eleven compounds are retold here after patent US11155550B2, “Histone deacetylase inhibitors and methods of use thereof” (Reaction Biology Corp., priority 2018, dated 2021).

Each structure is given as a SMILES string. pIC50: −log10 of the molar value.

Turning to `CN1CCC2(CC1)CN(c1ccc(C(=O)Nc3cc(-c4cccs4)ccc3N)cn1)C(=O)O2` [Example 4, N-(2-amino-5-(thiophen-2-yl)phenyl)-6-(8-methyl-2-oxo-1-oxa-3,8-diazaspiro[4.5]decan-3-yl)nicotinamide], the negative logarithm of the IC50 (pIC50) (Table 1) is < 4.70. For the compound `O=C(NO)c1ccc(CN2C(=O)c3ccccc3C23OCCO3)cc1` [Compound Example 8, N-hydroxy-4-((3-oxospiro[isoindoline-1,2′-[1,3]dioxolan]-2-yl)methyl)benzamide], the pIC50 (Table 2) was 7.54. Take `Nc1ccc(-c2cccs2)cc1NC(=O)c1ccc(CN2C(=O)CCCC23CNC3)cc1` [Example 1, N-(2-amino-5-(thiophen-2-yl)phenyl)-4-((6-oxo-2,5-diazaspiro[3.5]nonan-5-yl)methyl)benzamide]: the negative logarithm of the IC50 (pIC50) (Table 1) was < 4.70. Still for that read-out and setting: the result for `Nc1cc(F)ccc1NC(=O)c1ccc(CN2C(=O)CCCC23CNC3)cc1` [Example 3, N-(2-amino-4-fluorophenyl)-4-((6-oxo-2,5-diazaspiro[3.5]nonan-5-yl)methyl)benzamide] reads < 5.00. Take `O=C(NO)c1ccc(CN2C(=O)c3ccccc3C23CCN(C2CC2)CC3)cc1` [Compound Example 12, 4-((1′-cyclopropyl-3-oxospiro[isoindoline-1,4′-piperidin]-2-yl)methyl)-N-hydroxybenzamide]: the negative logarithm of the IC50 (pIC50) (Table 2) was 7.59.

Regarding `CN(C)C(=O)N1CCC2(CC1)c1ccccc1C(=O)N2Cc1ccc(C(=O)NO)cc1` [Compound Example 11, 2-(4-(hydroxycarbamoyl)benzyl)-N,N-dimethyl-3-oxospiro[isoindoline-1,4′-piperidine]-1′-carboxamide], the negative-log IC50 (pIC50) (Table 2) is 7.46. Take `Nc1ccc(-c2ccc(F)cc2)cc1NC(=O)c1ccc(N2CC3(CCOCC3)OC2=O)nc1` [Example 5, N-(4-amino-4′-fluoro-[1,1′-biphenyl]-3-yl)-6-(2-oxo-1,8-dioxa-3-azaspiro[4.5]decan-3-yl)nicotinamide]: the pIC50 (Table 1) was < 4.70. The same measure, in the same setting: to `Nc1ccc(-c2cccs2)cc1NC(=O)c1ccc(CN2C(=O)CCC23CCNCC3)cc1` [Example 2, N-(2-amino-5-(thiophen-2-yl)phenyl)-4-((2-oxo-1,8-diazaspiro[4.5]decan-1-yl)methyl)benzamide] belongs < 4.70. On to `O=C(NO)c1ccc(CN2C(=O)C3(CCOC3)c3ccccc32)cc1` (centres unmarked) [Compound Example 9], for which, under “Table 2”, the pIC50 is 8.35.

`O=C(NO)c1ccc(CN2C(=O)c3ccccc3C23CCNCC3)cc1` [Compound Example 10, N-hydroxy-4-((3-oxospiro[isoindoline-1,4′-piperidin]-2-yl)methyl)benzamide]: the negative-log IC50 (pIC50) (Table 2) is 6.69. Turning to `Nc1ccc(-c2cccs2)cc1NC(=O)c1ccc(N2CC3(CCNCC3)CCC2=O)nc1` [Example 6, N-(2-amino-5-(thiophen-2-yl)phenyl)-6-(3-oxo-2,9-diazaspiro[5.5]undecan-2-yl)nicotinamide], the negative logarithm of the IC50 (pIC50) (Table 1) is < 4.70.
